# Literature values as cited in patent US11975015B2, “Methods for treating degenerative disc disease and chronic lower back pain” (ECM Biologics, Inc., priority 2017, dated 2024).
# Test system: chronic low back pain (CLBP)
# Details: amoxicillin 500 mg-clavulanic acid 125 mg three times a day for 100 days; Albert 2013, Palazzo 2017
substance,measurement,value
amoxicillin-clavulanic acid,treatment outcome in CLBP patients,mixed results
